For seven compounds, Minimum inhibitory concentration results are on record in patent US11225505B2, “Antimicrobial polymyxin derivative compounds” (MONASH UNIVERSITY, priority 2015, dated 2022).

Format in all cases: cell-based
For assay [1], the system named is Acinetobacter baumannii ATCC 17978. The settings on record: ATCC 17978. In a few lines: (§1)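 MICs were determined by broth microdilution in cation-adjusted Mueller-Hinton broth following the CLSI M100-S24 protocol. Lipopeptides were tested as trifluoroacetic acid salts against polymyxin-susceptible Gram-negative strains, with polymyxin B sulphate as control. FADDI-PA022 and FADDI-AB034 are multidrug-resistant clinical isolates.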

Assay [2] concerns Acinetobacter baumannii FADDI-AB034. As to conditions: FADDI-AB034. In a few lines:
as §1

The test system of assay [3] is Enterobacter cloacae FADDI-EC001. As to conditions: FADDI-EC001. Put shortly:
(§2)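 Standard CLSI (M100-S24) microdilution in cation-adjusted broth gives the MIC for each strain. Test compounds are TFA-salt lipopeptides; the comparator is polymyxin B sulphate.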

The subject of assay [4] is Enterobacter cloacae FADDI-EC003. The settings on record: FADDI-EC003. Put shortly:
as §1

Assay [5] has as its system Enterobacter cloacae FADDI-EC006. As to conditions: FADDI-EC006. In a few lines:
as §1

Assay [6] relates to Klebsiella pneumoniae FADDI-KP022. The settings on record: FADDI-KP022. Put shortly: as §1
Assay [7] concerns Klebsiella pneumoniae FADDI-KP032. The settings on record: FADDI-KP032. Put shortly: as §1
The subject of assay [8] is Klebsiella pneumoniae Kp BM1. The settings on record: Kp BM1. In a few lines: as §2
In assay [9] the test system is Pseudomonas aeruginosa ATCC 27853. The settings on record: ATCC 27853. Put shortly: as §1
Assay [10] has as its system Pseudomonas aeruginosa FADDI-PA01. As to conditions: FADDI-. In a few lines: as §1
Assay [11] deals with Pseudomonas aeruginosa FADDI-PA022. The settings on record: FADDI-PA022. In a few lines: as §1
The test system of assay [12] is Pseudomonas aeruginosa FADDI-PA038. The settings on record: FADDI-PA038. In a few lines:
as §1

The test system of assay [13] is Acinetobacter baumannii FADDI-AB030. Kind of assay: microbe, parasite or virus in culture. As to conditions: FADDI-AB030. Put shortly: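 Broth microdilution MIC in cation-adjusted Mueller-Hinton broth per CLSI M100-S24; lipopeptides tested as TFA salts. FADDI-AB030 is a multidrug-resistant clinical isolate. Polymyxin B sulphate served as control.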

≈ marks a conversion by molar mass, not a printed value. Where a SMILES comes first, the peptide text is derived from it. Bridges are numbered along the chain shown (N, C = ends). [ ]: non-standard residue; d: D form. The star is where a group is joined. Quinoxaline2carbonyl = O=C(c1cnc2ccccc2n1)*; X24 = O=C(c1cccc(C(F)(F)F)n1)*; X49 = O=C(c1cnc(C(F)(F)F)nc1)*; X22 = Cn1c(C(=O)*)cc2ccccc21; X42 = O=C(c1nc2ccccc2[nH]1)*; X12 = CCc1ccc(C(=O)*)nc1; X54 = O=C(c1cccc(Cl)n1)*; Dab = NCC[C@H](N)C(=O)O; Abu = CC[C@H](N)C(=O)O; Dap = NC[C@H](N)C(=O)O Bounds are passed on as bounds.

For `CCc1ccc(C(=O)N[C@@H](CCN)C(=O)N[C@H](C(=O)N[C@@H](CN)C(=O)N[C@H]2CCNC(=O)[C@H]([C@@H](C)O)NC(=O)[C@H](CCN)NC(=O)[C@H](CCN)NC(=O)[C@H](CC)NC(=O)[C@@H](CC(C)C)NC(=O)[C@H](CCN)NC2=O)[C@@H](C)O)nc1` [Compound 42] (X12-[Dab]T[Dap][Dab][Dab][dL][Abu][Dab][Dab]T; lactam 4-C), the Minimum inhibitory concentration in assay [1] is 1 µg/mL (≈ 0.893 µM); in [2], 0.5 µg/mL (≈ 0.446 µM); in assay [3] it was less than 0.125 µg/mL; in [4], less than 0.125 µg/mL; in assay [5], less than 0.125 µg/mL; in [6] it was less than 0.125 µg/mL. Besides, the Minimum inhibitory concentration in assay [7] was less than 0.125 µg/mL; in [8], 0.25 µg/mL (≈ 0.223 µM); in assay [9] it was less than 0.125 µg/mL; in assay [10], less than 0.125 µg/mL; in [11] it was less than 0.125 µg/mL; in assay [12], 0.25 µg/mL (≈ 0.223 µM). This compound also displayed a Minimum inhibitory concentration in [13] of less than 0.125 µg/mL.

As for `CC[C@@H]1NC(=O)[C@@H](CC(C)C)NC(=O)[C@H](CCN)NC(=O)[C@@H](NC(=O)[C@H](CN)NC(=O)[C@@H](NC(=O)[C@H](CCN)NC(=O)c2cccc(Cl)n2)[C@@H](C)O)CCNC(=O)[C@H]([C@@H](C)O)NC(=O)[C@H](CCN)NC(=O)[C@H](CCN)NC1=O` [Compound 43] (X54-[Dab]T[Dap][Dab][Dab][dL][Abu][Dab][Dab]T; lactam 4-C), the Minimum inhibitory concentration is 4 µg/mL (≈ 3.55 µM) in assay [1]; 4 µg/mL (≈ 3.55 µM) in assay [2]; less than 0.125 µg/mL in assay [3]; 0.25 µg/mL (≈ 0.222 µM) in assay [4]; 0.5 µg/mL (≈ 0.444 µM) in assay [5]; less than 0.125 µg/mL in assay [6]. Also, the Minimum inhibitory concentration in [7] was 0.25 µg/mL (≈ 0.222 µM); in assay [8], 0.25 µg/mL (≈ 0.222 µM); in assay [9], 0.25 µg/mL (≈ 0.222 µM); in assay [10], 0.25 µg/mL (≈ 0.222 µM); in [11] it was 0.25 µg/mL (≈ 0.222 µM); in [12] it was 1 µg/mL (≈ 0.888 µM). The compound further returned a Minimum inhibitory concentration in assay [13] of 4 µg/mL (≈ 3.55 µM).

With `CC[C@@H]1NC(=O)[C@@H](CC(C)C)NC(=O)[C@H](CCN)NC(=O)[C@@H](NC(=O)[C@H](CN)NC(=O)[C@@H](NC(=O)[C@H](CCN)NC(=O)c2cccc(C(F)(F)F)n2)[C@@H](C)O)CCNC(=O)[C@H]([C@@H](C)O)NC(=O)[C@H](CCN)NC(=O)[C@H](CCN)NC1=O` [Compound 44] (X24-[Dab]T[Dap][Dab][Dab][dL][Abu][Dab][Dab]T; lactam 4-C), the Minimum inhibitory concentration in [1] was 2 µg/mL (≈ 1.72 µM); in assay [2], 2 µg/mL (≈ 1.72 µM); in [3] it was less than 0.125 µg/mL; in [4], less than 0.125 µg/mL; in [5] it was 0.5 µg/mL (≈ 0.431 µM); in assay [6], less than 0.125 µg/mL. Also, the Minimum inhibitory concentration in assay [7] was less than 0.125 µg/mL; in assay [8], less than 0.125 µg/mL; in assay [9], less than 0.125 µg/mL; in assay [10] it was less than 0.125 µg/mL; in [11], 0.25 µg/mL (≈ 0.215 µM); in assay [12], 0.5 µg/mL (≈ 0.431 µM). The Minimum inhibitory concentration in [13] was 1 µg/mL (≈ 0.862 µM).

Regarding `CC[C@@H]1NC(=O)[C@@H](CC(C)C)NC(=O)[C@H](CCN)NC(=O)[C@@H](NC(=O)[C@H](CN)NC(=O)[C@@H](NC(=O)[C@H](CCN)NC(=O)c2cnc(C(F)(F)F)nc2)[C@@H](C)O)CCNC(=O)[C@H]([C@@H](C)O)NC(=O)[C@H](CCN)NC(=O)[C@H](CCN)NC1=O` [Compound 45] (X49-[Dab]T[Dap][Dab][Dab][dL][Abu][Dab][Dab]T; lactam 4-C), the Minimum inhibitory concentration in assay [1] was 2 µg/mL (≈ 1.72 µM); in assay [2], 0.5 µg/mL (≈ 0.431 µM); in assay [3] it was less than 0.125 µg/mL; in assay [4] it was 2 µg/mL (≈ 1.72 µM); in assay [5] it was 2 µg/mL (≈ 1.72 µM); in assay [6] it was less than 0.125 µg/mL. Also, the Minimum inhibitory concentration in assay [7] was 0.5 µg/mL (≈ 0.431 µM); in assay [8] it was 0.5 µg/mL (≈ 0.431 µM); in [9] it was 0.25 µg/mL (≈ 0.215 µM); in [10] it was less than 0.125 µg/mL; in assay [11] it was 0.25 µg/mL (≈ 0.215 µM); in assay [12], 1 µg/mL (≈ 0.861 µM). The Minimum inhibitory concentration in assay [13] turned out to be 0.5 µg/mL (≈ 0.431 µM).

On to `CC[C@@H]1NC(=O)[C@@H](CC(C)C)NC(=O)[C@H](CCN)NC(=O)[C@@H](NC(=O)[C@H](CN)NC(=O)[C@@H](NC(=O)[C@H](CCN)NC(=O)c2cnc3ccccc3n2)[C@@H](C)O)CCNC(=O)[C@H]([C@@H](C)O)NC(=O)[C@H](CCN)NC(=O)[C@H](CCN)NC1=O` [Compound 46] (Quinoxaline2carbonyl-[Dab]T[Dap][Dab][Dab][dL][Abu][Dab][Dab]T; lactam 4-C), for which the Minimum inhibitory concentration in assay [1] is 4 µg/mL (≈ 3.5 µM); in assay [2], 4 µg/mL (≈ 3.5 µM); in [3] it was 0.25 µg/mL (≈ 0.219 µM); in [4], 0.25 µg/mL (≈ 0.219 µM); in [5], 2 µg/mL (≈ 1.75 µM); in assay [6], less than 0.125 µg/mL. Moreover, the Minimum inhibitory concentration is less than 0.125 µg/mL in assay [7]; 0.25 µg/mL (≈ 0.219 µM) in assay [8]; 0.5 µg/mL (≈ 0.437 µM) in [9]; 0.25 µg/mL (≈ 0.219 µM) in [10]; 0.5 µg/mL (≈ 0.437 µM) in assay [11]; 0.5 µg/mL (≈ 0.437 µM) in [12]. Also, the Minimum inhibitory concentration in assay [13] was 2 µg/mL (≈ 1.75 µM).

Turning to `CC[C@@H]1NC(=O)[C@@H](CC(C)C)NC(=O)[C@H](CCN)NC(=O)[C@@H](NC(=O)[C@H](CN)NC(=O)[C@@H](NC(=O)[C@H](CCN)NC(=O)c2nc3ccccc3[nH]2)[C@@H](C)O)CCNC(=O)[C@H]([C@@H](C)O)NC(=O)[C@H](CCN)NC(=O)[C@H](CCN)NC1=O` [Compound 47] (X42-[Dab]T[Dap][Dab][Dab][dL][Abu][Dab][Dab]T; lactam 4-C), the Minimum inhibitory concentration in assay [1] is 1 µg/mL (≈ 0.884 µM); in assay [2] it was 1 µg/mL (≈ 0.884 µM); in [3], less than 0.125 µg/mL; in assay [4] it was less than 0.125 µg/mL; in [5] it was 0.5 µg/mL (≈ 0.442 µM); in assay [6], less than 0.125 µg/mL. The Minimum inhibitory concentration is 0.25 µg/mL (≈ 0.221 µM) in assay [7]; 0.25 µg/mL (≈ 0.221 µM) in assay [8]; 0.5 µg/mL (≈ 0.442 µM) in assay [9]; less than 0.125 µg/mL in assay [10]; 0.25 µg/mL (≈ 0.221 µM) in [11]; 0.5 µg/mL (≈ 0.442 µM) in assay [12]. The same compound yielded a Minimum inhibitory concentration in [13] of 0.25 µg/mL (≈ 0.221 µM).

`CC[C@@H]1NC(=O)[C@@H](CC(C)C)NC(=O)[C@H](CCN)NC(=O)[C@@H](NC(=O)[C@H](CN)NC(=O)[C@@H](NC(=O)[C@H](CCN)NC(=O)c2cc3ccccc3n2C)[C@@H](C)O)CCNC(=O)[C@H]([C@@H](C)O)NC(=O)[C@H](CCN)NC(=O)[C@H](CCN)NC1=O` [Compound 48] (X22-[Dab]T[Dap][Dab][Dab][dL][Abu][Dab][Dab]T; lactam 4-C): the Minimum inhibitory concentration is less than 0.125 µg/mL in assay [1]; 0.25 µg/mL (≈ 0.218 µM) in [2]; less than 0.125 µg/mL in assay [3]; 0.25 µg/mL (≈ 0.218 µM) in assay [4]; 0.25 µg/mL (≈ 0.218 µM) in assay [5]; less than 0.125 µg/mL in [6]. The Minimum inhibitory concentration in assay [7] was less than 0.125 µg/mL; in assay [8], less than 0.125 µg/mL; in assay [9], 0.25 µg/mL (≈ 0.218 µM); in [10] it was less than 0.125 µg/mL; in [11] it was 0.25 µg/mL (≈ 0.218 µM); in assay [12] it was less than 0.125 µg/mL. The Minimum inhibitory concentration in assay [13] was less than 0.125 µg/mL.
